Assay results as given in a melting point compilation (Tetko et al.; mined from patent text by program, amines drawn as free bases though some values may be those of a salt).

Compound	melting point [°C]
O=C(Nc1ccc(N2CCCC2)nc1)c1cc2cc(C(F)(F)F)cnc2n1Cc1cccc(F)c1	234 to 236
O=C(CCCOc1cccc(CNC(=O)c2nc3ccccc3c(=O)[nH]2)c1)Nc1nc[nH]n1	189 to 190
COc1ccc2oc(CC(=O)O)c(C)c2c1	113 to 114
CC(C)c1cc(C(=O)Nc2ccc(C(=O)O)cc2)[nH]c1C(C)C	230
COc1c(CN2CCNC2=C[N+](=O)[O-])cc(C)nc1[N+](=O)[O-]	177 to 181
Cc1nnc2n1-c1ccc(C#CCN3C(=O)C4CC=CCC4C3=O)cc1C(c1ccccc1F)=NC2 (centres undefined)	259 to 261
CCCCCCCCCCCCCCCCCCOc1cc(OCCOCCOCCOCC)cc(N(CC(=O)O)CC(=O)O)c1	76 to 78
Cn1nnnc1SCC1=C(C(=O)OCOC(=O)C(C)(C)C)N2C(=O)C(NC(=O)Cc3csc(=O)s3)C2SC1 (centres undefined)	100
COc1cc(C)c(C(=O)c2c(Cl)cnc(Cl)c2Cl)c(OC)c1OC	60 to 61
COC(=O)c1cnc(Cl)c(C)n1	49 to 50
c1cc(-c2n[nH]c3c2Cc2ccc(CN4CCCC4)cc2-3)cs1	133 to 134
CCOC(=O)C=CC=Cc1ccc(C=Cc2nc(-c3ccco3)oc2C)cc1	155 to 156
CCCCc1nn(-c2cccc(NC(=O)CC)c2)c(=O)n1Cc1ccc(-c2ccccc2S(=O)(=O)NC(=O)c2ccccc2Cl)cc1	105 to 107
CSc1ccc(CSc2cccc(C(=O)Nc3ccc(Cl)cn3)c2)cc1	159 to 161
COc1ccc(C#Cc2cc3ncc(C#N)c(Nc4cc(OC)c(Cl)cc4Cl)c3s2)cc1	249 to 250
CCOC(=O)CCNC(=O)Nc1ccc([N+](=O)[O-])cc1O	115 to 116
CCOCc1nc2c(N)nc3ccccc3c2n1CC1(N(C(N)=O)C(C)C)CCCCC1	135 to 160
COc1ccc(N2CC(CCN3CCC(O)(c4ccc5c(c4)OCO5)CC3)OC2=O)cc1 (centres undefined)	128 to 130
O=C1OC(=O)c2nc3ccc(OC(F)F)cc3cc21	158
CCCC1=C(C(=O)OCC)C(c2cccc(C#N)c2OC)c2c[nH]nc2N1 (centres undefined)	220 to 222
O=C(O)CC1CCCc2c1n(Cc1ccc(Cl)cc1)c1ccc(F)cc21 (single isomer, unassigned; (-))	151 to 152
CC(C)C#Cc1c(C#N)nn(-c2c(Cl)cc(C(F)(F)F)cc2Cl)c1N	210 to 212
CCCc1nc2c(N)nc3cc(-c4ccccc4)ccc3c2n1CCCON=C(C)C	164 to 165
Cc1nnc2n1-c1sc(CCC(=O)N3CCCCC3)cc1C(c1ccccc1Cl)=NC2C (centres undefined)	157 to 160
CCCC(=O)Nc1n[nH]c2cc(Cl)ccc12	230

Compound	melting point [°C]
Cn1ccc(N)cc1=O	200 to 202
CC(C)NC(=O)c1cnn(C)c1C(=O)Nc1ccn2nc(-c3ccccc3)nc2c1	> 250
O=C1c2ccccc2C(=O)N1OCCOCc1ccccc1F	62 to 64
CCCCOC(=O)Oc1ccc(-c2ccc(C#N)cc2)cc1	64.8 to 65.7
CCOC(=O)C(=O)Nc1ccc(S(N)(=O)=O)cc1[N+](=O)[O-]	193 to 195
Cc1cc2nc3c(nc2cc1[N+](=O)[O-])SC(C#N)=C(C#N)S3	155 to 157
O=C(c1c(C2CC2)nn2ccccc12)C1CC1	102 to 104
CSC(=NS(=O)(=O)c1ccc(C)cc1)N1CCc2nc(N)sc2C1	191 to 195
Cc1ccccc1Nc1nc(Cl)c2sccc2n1	87 to 89
C#CCC1C(=O)NOc2cc(F)c(NC(=S)N3CCCC=N3)cc21 (centres undefined)	151 to 155
CCCCCCCCOc1ccc(C(=O)Oc2ccc(C3CCC(O)CC3)cc2)cc1 (centres undefined)	111 to 112
O=C(N[C@@H]1CN[C@H]2CCO[C@H]21)C(F)(F)F (relative stereo)	106 to 110
OC1(c2ccc(Cl)cc2)CCN(CCNC(c2ccccc2)c2ccccc2)CC1	114
Cc1cc(C(=O)NN)ccc1-c1ccc(C(=O)C2CN(C)CCC23COc2cc4c(cc23)NCC4)cc1 (centres undefined)	130 to 135
CCC1(CC)C(=O)C(C)N(c2ccc(C#N)c(Cl)c2)C1=O (centres undefined)	93.5 to 94.5
O=C1CCCCC1C(C[N+](=O)[O-])c1ccc(F)cc1 (racemic)	84 to 85
COC(=O)c1[nH]c2c(C)ccc(C)c2c1Br	173 to 174
CC(C)Oc1c(C(=O)NCc2ccccc2)oc2ccc(Cl)cc12	80 to 82
CCCC1N=Cc2cc(Cl)nc(=O)n21 (centres undefined)	194 to 196
O=C(O)c1ccc(CNC(=O)C2Cc3ccccc3N2S(=O)(=O)c2ccc(-c3ccc(F)cc3Cl)cc2)cc1 (centres undefined)	111 to 124
Nc1cc2c(cc1[N+](=O)[O-])CCC2	131 to 132
CCCCCCCCSc1ccc(CC(CO)(CO)NC(C)=O)cc1	76 to 78
CN(C1=NC(=O)C(=O)S1)c1ccc(-c2ncn(-c3ccc(OC(F)(F)F)cc3)n2)cc1	114 to 118
CCOC(=O)c1cc(NCc2ccccc2)c(Oc2ccc(OCc3ccccc3)cc2)c(S(N)(=O)=O)c1	166

Further lines, results first:

melting point [°C]	Compound
210 to 212	O=C(Nc1ccc(OC(F)(F)F)cc1)NC1CCN(C(=O)c2ccncc2)CC1
209 to 210	COC(=O)c1sc(C)c(C#N)c1N
58	CC[C@H](NC(=O)OC(C)(C)C)C(=O)OCCCCNc1cccc2c1C(=O)c1ccccc1C2=O
140 to 141	CC12CCC(I)CC1=CCC1C2CCC2(C)C1CCC21OCCO1 (centres undefined)
94 to 95	CC(C)(C)CN(CC(C)(C)C)C(=O)C(O)(C(=O)O)c1ccc(Cl)c(Cl)c1 (centres undefined)
179 to 181	O=C(O)CCC12CCC(=O)N1C(=O)CC2
143 to 144	CCCCc1oc2ccccc2c1C(=O)Nc1ccc(-c2ccc(OCC#N)cc2)cc1
152 to 155	Cn1nc(C(F)(F)F)n(-c2ccc([N+](=O)[O-])cc2Cl)c1=S
60 to 62	CCCCCCCC1CCC(C(C#N)Cc2ccc(Br)cc2)CC1 (centres undefined)
62 to 64	CC(C)(C(=O)c1ccc(SCCO)cc1)N1CCOCC1
230 to 231	O=C(O)c1cn(-c2ccc(OC(F)(F)F)c(Cl)c2)cn1
233 to 235	CC(C)(C)n1[nH]c(Cc2ccncc2)c2c(=O)nc(-c3ccncc3)nc1-2
199	O=Cc1c2ccccc2cc2c1sc1ccccc12
109 to 113	O=C(O)c1ccc(OCCNC(=O)C2Cc3ccccc3N2S(=O)(=O)c2ccc(-c3ccc(F)cc3)cc2)cc1F (centres undefined)
155 to 157	CCNC(=O)N(C)c1ccc(C(O)(C(F)(F)Cl)C(F)(F)Cl)cc1
64 to 66	CCCCCCCCCCCCCCCC(O)=S
128 to 132	CCOc1ccc2c(c1)C(Cl)(c1ccccc1Cl)C(=O)N2 (centres undefined)
125 to 126	CS(=O)(=O)c1ccc(Oc2ccc(Br)cc2)nc1
171 to 172	O=C(O)COc1cccc2c1CCc1sc(SCC=Cc3ccccc3)nc1-2
226	O=C(N[C@H]1CC[C@H](CCN2CCN(c3nccc4c3CCO4)CC2)CC1)c1ccc(Cl)cc1
126 to 135	Cc1cc(N)cc(C)c1Oc1ccc(Cl)c2c1CCCC2
118 to 120	CCN(CC)CCOc1ccc(NC(=O)C#Cc2cccnc2)cc1Cl
47 to 48	CCOC(=O)c1nn(-c2ccc(C)cc2)nc1C
114 to 115	c1ccc2c(c1)[C@H](N1CCCCC1)C[C@@H]2N1CCCCC1
145 to 148	COc1ccc(N2CCN(c3c(C)c(C)c4c(c3C)CC(C)(CN(C)C)O4)CC2)cc1 (centres undefined)

melting point [°C]	Compound
203 to 204	Oc1ccc(-c2ncc3ncc(-c4ccc(C(F)(F)F)cc4)cc3n2)cc1
104 to 105	COC1OC(CO)C(OCc2ccccc2)C(O)C1OCc1ccccc1 (centres undefined)
150 to 151	Cc1nc2c(O)cc(C(=O)N(C)C)cc2n1COCC[Si](C)(C)C
106	O=C1CCCC(=O)C1C(=O)c1ccc(C(F)(F)F)c(N2CCSCC2)n1
151 to 152	COc1ccc2c(c1)C(=O)c1ccc(OC)cc1C2(Cc1ccnc(F)c1)Cc1ccnc(F)c1
76.5 to 77	CCCCCCNC(=O)c1cc(OC(C)=O)ccc1OC(C)=O
210 to 212	COc1ccc(C(=O)Nc2ccccc2)cc1NCc1cccc(C(=O)O)c1
245 to 247	C#Cc1cccc(Nc2ncnc3[nH]cc(-c4ccc(C)cc4)c23)c1
126 to 128	COc1ccc(N2CCN(c3c(C)c(C)c4c(c3C)C(c3ccccc3)C(C)(C)O4)CC2)cc1 (centres undefined)
53 to 56	CC(C)(C)C(=O)C1CCCS1(=O)=O (centres undefined)
148	C=CCC(c1ccc(C(O)(C(F)(F)F)C(F)(F)F)cc1)S(=O)(=O)c1ccccc1 (centres undefined)
206 to 208	Cc1nc(NC(=O)NC(=O)c2c(F)cccc2F)ccc1-c1ccccc1
56.6 to 58	CC(C)NCC(O)COc1ccc2c(c1)CCN(C=O)C2 (centres undefined)
66	Brc1csc(N2CCCCC2)n1
112 to 113	CC(C)(C)OCC1CN(c2ccc3ccccc3c2)C(=O)O1 (centres undefined)
105 to 107	CC(=Cc1ccccc1)C(C#N)=NOS(C)(=O)=O
208 to 210	COc1cc(Cc2cnc(N)nc2NO)cc(OC)c1OC
110 to 114	CCCOC(=O)c1cccc(CCN(C)CCCC(C#N)(c2ccc(OC)c(OC)c2)C(C)C)c1 (centres undefined)
73 to 74	CCc1c(Cc2ccccc2)[nH]c(=O)[nH]c1=O
99 to 122	O=C(Nc1ccc(F)c(CO)c1)c1ccccn1
44.5 to 46.5	C[C@@]1(CO)CCC(=O)O1
93 to 94	CCOC(=O)CCCCc1oc(-n2ccnc2C)nc1-c1ccc(Cl)cc1
106 to 108	CS(=O)(=O)OC1CC(n2ccc(=O)[nH]c2=O)OC1COC(c1ccccc1)(c1ccccc1)c1ccccc1 (centres undefined)
93 to 95	Cc1cccc(S(=O)(=O)n2ccnc2)c1C#N
117 to 118	CS(=O)(=O)c1ccc(-c2sc(Cc3ccccc3)nc2-c2ccc(F)cc2)cc1
